Assays:
[1] = High Throughput Metabolic Stability Panel, mouse liver microsomes; settings: 0.5 μM compound, mouse liver microsomes, ten-minute incubation, NADPH
G292 osteogenic sarcoma = test: Human tumor xenograft in mice: G292; assay type: in vivo; settings: PO, QDx15, 10 day-on-2 day-off, 5-10 mg/kg/adm
Pat-24 pancreatic cancer = test: Human tumor xenograft in mice: Pat-24; assay type: in vivo; settings: Pat-24 xenograft; PO, QDx15, 10 day-on-2 day-off, 5-10 mg/kg/adm
Pat-26 pancreatic cancer = test: Human tumor xenograft in mice: Pat-26; assay type: in vivo; settings: Pat-26 xenograft; PO, QDx15, 10 day-on-2 day-off, 5-10 mg/kg/adm
[2] = test system: U-87 glioblastoma multiforme (GBM); test: Human tumor xenograft in mice: U-87; assay type: in vivo; settings: U-87 xenograft; PO, QDx15, 10 day-on-2 day-off, 5-10 mg/kg/adm
HCT116 colon cancer = test: Human tumor xenograft in mice: HCT116; assay type: in vivo; settings: PO, QDx15, 10 day-on-2 day-off, 5-10 mg/kg/adm
[3] = test system: MCF7i estrogen-independent breast cancer; test: Human tumor xenograft in mice: MCF7i; assay type: in vivo; settings: PO, QDx15, 10 day-on-2 day-off, 5-10 mg/kg/adm
TALL-1 leukemia = test: Cell proliferation, TALL-1 leukemia; assay type: cell-based; settings: Homo sapiens; TALL-1 leukemia cells
Protocol: (§1) In in vitro studies, all agents were dissolved in 100% DMSO and serially diluted in media/10% fetal bovine serum. For administration of Notch inhibitors to rodents, two different excipients were used: [1] 94% Labrafil/5% ETOH/1% TW80 or [2] ETOH/TPGS/PEG300 (10:10:80). Notch inhibitors were typically administered orally on a schedule of QD×15, 10 day-on-2 day-off, although other schedules had also been evaluated and shown to be efficacious.

Pat-50 ovarian cancer = test: Human tumor xenograft in mice: Pat-50; assay type: in vivo; settings: Pat-50 xenograft; PO, QDx15, 10 day-on-2 day-off, 5-10 mg/kg/adm
MDA-MB-468 breast cancer = test: Cell proliferation, MDA-MB-468 breast cancer; assay type: cell-based; settings: Homo sapiens; MDA-MB-468 breast cancer cells
Protocol: as §1

[4] = test system: TALL1 Human T-cell acute lymphoblastic leukemia; test: Human tumor xenograft in mice: TALL1; assay type: in vivo
[5] = test system: Pat-21/Abx R TN breast cancer (abx R); test: Human tumor xenograft in mice: Pat-21/Abx R; assay type: in vivo; settings: Pat-21/Abx R xenograft; PO, QDx15, 10 day-on-2 day-off, 5-10 mg/kg/adm
[6] = test system: MDA-MB157 TN breast cancer; test: Human tumor xenograft in mice: MDA-MB157; assay type: in vivo; settings: PO, QDx15, 10 day-on-2 day-off, 5-10 mg/kg/adm
[7] = test system: MCF7 estrogen-dependent breast cancer; test: Human tumor xenograft in mice: MCF7; assay type: in vivo; settings: PO, QDx15, 10 day-on-2 day-off, 5-10 mg/kg/adm
[8] = 0.5 μM compound, human liver microsomes, ten-minute incubation, NADPH
Protocol: The metabolic stability assay evaluated CYP-mediated metabolic stability in vitro using human, rat, mouse, dog, and/or monkey microsomes after a ten-minute incubation. Each compound was tested in duplicate.
Test compound was received as a 3.5 mM stock solution in 100 percent DMSO. […] Each compound was tested in duplicate separately in each of three species in the Metabolic Stability-Human, Rat, and Mouse assay suite or as individual species in the Metabolic Stability-Dog or Metabolic Stability-Monkey suites. Compound, NADPH, and liver microsome solutions were combined for incubation in three steps:
The reaction was initiated by the addition of 17 μl of pre-warmed 10 mM NADPH solution in 100 mM NaPi, pH 7.4.
The reaction components were mixed well, and 75 μl of the reaction mixture was immediately transferred into 150 μl quench/stop solution (zero-time point, T0). Reactions were incubated at 37° C. for 10 minutes and then an additional 75 μl aliquot was transferred into 150 μl quench solution. Acetonitrile containing 100 μM DMN (a UV standard for injection quality control), was used as the quench solution to terminate metabolic reactions.
Quenched mixtures were centrifuged at 1500 rpm (˜500×g) in an ALLEGRA® X-12 centrifuge, SX4750 rotor (Beckman Coulter Inc., Fullerton, Calif.) for fifteen minutes to pellet denatured microsomes. A volume of 90 μl of supernatant extract, containing the mixture of parent compound and its metabolites, was then transferred to a separate 96-well plate for UV-LC/MS-MS analysis to determine the percent of parent compound that remained in the mixture.
Peak integration was performed with the XCALIBUR® software. The percent remaining calculation was performed by comparing the LC-MS/MS peak areas from the T10minute samples to those from the T0minute samples for each compound.
A set of three compounds was tested along with the test compound in each assay plate.

SK-N-AS neuroblastoma = test: Human tumor xenograft in mice: SK-N-AS; assay type: in vivo; settings: PO, QDx15, 10 day-on-2 day-off, 5-10 mg/kg/adm
[9] = test system: MDA-MB468 TN breast cancer; test: Human tumor xenograft in mice: MDA-MB468; assay type: in vivo; settings: PO, QDx15, 10 day-on-2 day-off, 5-10 mg/kg/adm
Pat-34 ovarian cancer = test: Human tumor xenograft in mice: Pat-34; assay type: in vivo; settings: Pat-34 xenograft; PO, QDx15, 10 day-on-2 day-off, 5-10 mg/kg/adm
[10] = test system: Calu-6 Non small cell lung cancer; test: Human tumor xenograft in mice: Calu-6; assay type: in vivo; settings: Calu-6 xenograft; PO, QDx15, 10 day-on-2 day-off, 5-10 mg/kg/adm
[11] = test system: BT-474 HER2+ breast cancer; test: Human tumor xenograft in mice: BT-474; assay type: in vivo; settings: BT-474 xenograft; PO, QDx15, 10 day-on-2 day-off, 5-10 mg/kg/adm

What does the source list for `CN1C(=O)[C@@H](NC(=O)[C@H](CCC(F)(F)F)[C@H](CCC(F)(F)F)C(N)=O)N=C(c2ccccc2)c2ccccc21` [Compound A, (2R,3S)—N-((3S)-1-Methyl-2-oxo-5-phenyl-2,3-dihydro-1H-1,4-benzodiazepin-3-yl)-2,3-bis(3,3,3-trifluoropropyl)succinamide]?
0.5 μM MsLM (% Remaining) [1]: 91%; Antitumor Activity (% TGI) (G292 osteogenic sarcoma): 75 % TGI; Antitumor Activity (% TGI) (Pat-24 pancreatic cancer): 111 % TGI; Antitumor Activity (% TGI) (Pat-26 pancreatic cancer): 93 % TGI; Antitumor Activity (% TGI) [2]: 82 % TGI; Antitumor Activity (% TGI) (HCT116 colon cancer): 75 % TGI; Antitumor Activity (% TGI) [3]: 63 % TGI; IC50 (TALL-1 leukemia): 3.9 nM; Antitumor Activity (% TGI) (Pat-50 ovarian cancer): 91 % TGI; IC50 (MDA-MB-468 breast cancer): 3.8 nM; in vivo efficacy against TALL1, activity as defined by the tumor growth inhibition (TGI) ([4]; FIG. 1, dosed intravenously QD×3, weekly×3, Compound A 3 mg/kg, Example 12 1.5, 3, 6 mg/kg, active = TGI≧50%): active; Antitumor Activity (% TGI) ([4]; TALL1 xenograft, PO, QDx15, 10 day-on-2 day-off, 5-10 mg/kg/adm): 112 % TGI; Antitumor Activity (% TGI) [5]: 73 % TGI; Antitumor Activity (% TGI) [6]: 81 % TGI; Antitumor Activity (% TGI) [7]: 73 % TGI; 0.5 μM HLM (% Remaining) [8]: 97%; Antitumor Activity (% TGI) (SK-N-AS neuroblastoma): 67 % TGI; Antitumor Activity (% TGI) [9]: 91 % TGI; Antitumor Activity (% TGI) (Pat-34 ovarian cancer): 89 % TGI; Antitumor Activity (% TGI) [10]: 81 % TGI; Antitumor Activity (% TGI) [11]: 96 % TGI

From patent US9273075B2, “Prodrugs of 1,4-benzodiazepinone compounds” (BRISTOL-MYERS SQUIBB COMPANY, priority 2012, dated 2016)
